Patent US6395896B2, “Pyridazine derivatives, manufacturing method and related composition” (Shiseido Co., Ltd., priority 1999, dated 2002)

What was measured:
[1] = Pigment stabilization effect (sequestering agent combination); design: key to Sunlight exposure (80 MJ) Appearance: A: No change; B: No almost change; C: Yes change; key to Sunlight exposure (80 MJ) ΔE: color difference ΔE in Lab space vs. color before sunlight exposure; conditions: photostabilizer 0, amounts wt %
Protocol: First of all, the photostabilization effect and appearance changes of a composition for each pigment were studied by the following evaluation formulation.
Each test sample was prepared. Observation of appearance changes (visual evaluation) and measurement of color difference (ΔE) were carried out for samples exposed to sunlight (around 80 MJ).
Color difference was measured by Lab coordinate system with spectrophotometer. Color difference was calculated based on the color before sunlight exposure. Namely, from the measured value (L1,a1,b1) before sunlight exposure, color difference (ΔE) was calculated by following formula.

[2] = Drug stabilization effect (sequestering agent combination); design: key to Sunlight exposure (80 MJ) Appearance: A: No change; B: No almost change; C: Yes change; conditions: sequestering agent 0.03 alone, photostabilizer 0, amounts wt %
Protocol: Next, when combined with a sequestering agent, the photostabilization effect and appearance change of a composition for each drug was studied by the following evaluation formulation.
Each test sample was prepared. Appearance change of the samples exposed to sunlight (around 80 MJ) was observed (visual evaluation). Also, residual yield of a drug was measured by liquid chromatography.

[3] = Perfume stabilization effect (sequestering agent combination); design: key to Sunlight exposure (80 MJ) Smell evaluation: A: No change; B: No almost change; C: Yes change; conditions: sequestering agent 0.03 alone, photostabilizer 0, amounts wt %
Protocol: Next, for combinations with sequestering agent, photostabilization effect for each perfume was studied by the following evaluation formulation.
Each test sample was prepared. Smell change of samples exposed to sunlight (80 MJ) was observed (judgement by perfumier).

[4] = colorant Blue No. 1 0.0001, sequestering agent 0.03 alone
[5] = colorant Green No. 3 0.0001, sequestering agent 0.03 alone
[6] = colorant Red No. 106 0.0001, sequestering agent 0.02 alone
[7] = colorant Red No. 213 0.0001, sequestering agent 0.05 alone
[8] = colorant Red No. 227 0.0001, sequestering agent 0.02 alone
[9] = colorant Red No. 401 0.001, sequestering agent 0.1 alone
[10] = colorant Yellow No. 5 0.001, sequestering agent 0.02 alone
[11] = colorant Yellow No. 203 0.001, sequestering agent 0.02 alone
[12] = colorants Red No. 227 0.0001 + Yellow No. 203 0.0001, sequestering agent 0.02 alone
[13] = colorants Red No. 401 0.0001 + Green No. 3 0.00001, sequestering agent 0.03 alone
[14] = colorants Yellow No. 203 0.0001 + Yellow No. 5 0.0001, sequestering agent 0.01 alone
[15] = drug 2-o-α-α-glucopyranosyl-L-ascorbic acid 2.0
[16] = drug Dibutylhydroxytoluene 0.01
[17] = drug Dipotassium glycyrrhizinate 0.05

Substance: Sodium metaphosphate
- Sunlight exposure (80 MJ) Appearance [1, 4]: C
- Sunlight exposure (80 MJ) ΔE [1, 4]: 8.02
- Sunlight exposure (80 MJ) Appearance [1, 5]: C
- Sunlight exposure (80 MJ) ΔE [1, 5]: 2.02
- Sunlight exposure (80 MJ) Appearance [1, 6]: C
- Sunlight exposure (80 MJ) ΔE [1, 6]: 2.88
- Sunlight exposure (80 MJ) Appearance [1, 7]: C
- Sunlight exposure (80 MJ) ΔE [1, 7]: 3.71
- Sunlight exposure (80 MJ) Appearance [1, 8]: C
- Sunlight exposure (80 MJ) ΔE [1, 8]: 1.37
- Sunlight exposure (80 MJ) Appearance [1, 9]: C
- Sunlight exposure (80 MJ) ΔE [1, 9]: 7.07
- Sunlight exposure (80 MJ) Appearance [1, 10]: C
- Sunlight exposure (80 MJ) ΔE [1, 10]: 1.77
- Sunlight exposure (80 MJ) Appearance [1, 11]: C
- Sunlight exposure (80 MJ) ΔE [1, 11]: 2.74
- Sunlight exposure (80 MJ) Appearance [1, 12]: C
- Sunlight exposure (80 MJ) ΔE [1, 12]: 3.01
- Sunlight exposure (80 MJ) Appearance [1, 13]: C
- Sunlight exposure (80 MJ) ΔE [1, 13]: 4.23
- Sunlight exposure (80 MJ) Appearance [1, 14]: C
- Sunlight exposure (80 MJ) ΔE [1, 14]: 1.44
- Sunlight exposure (80 MJ) Appearance [2, 15]: C
- Sunlight exposure (80 MJ) Residual yield [%] [2, 15]: 85.2%
- Sunlight exposure (80 MJ) Appearance [2, 16]: C
- Sunlight exposure (80 MJ) Residual yield [%] [2, 16]: 54.7%
- Sunlight exposure (80 MJ) Appearance [2, 17]: B
- Sunlight exposure (80 MJ) Residual yield [%] [2, 17]: 85.8%
- Sunlight exposure (80 MJ) Smell evaluation ([3]; natural perfume Jasmine oil 0.03): C
- Sunlight exposure (80 MJ) Smell evaluation ([3]; natural perfume Musk oil 0.03): C
- Sunlight exposure (80 MJ) Smell evaluation ([3]; natural perfume Orange oil 0.03): C
- Sunlight exposure (80 MJ) Smell evaluation ([3]; perfume Fruity 0.03): C
- Sunlight exposure (80 MJ) Smell evaluation ([3]; perfume Muguet 0.03): C
- Sunlight exposure (80 MJ) Smell evaluation ([3]; synthetic perfume Lilial 0.03): C
- Sunlight exposure (80 MJ) Smell evaluation ([3]; synthetic perfume Oranthiol 0.03): C
